Measurements from patent publication US8946261B2, “Substituted 1, 2, 3, 4-tetrahydroquinolin-7-yl carbamates as acetylcholinesterase inhibitors for treatment of Alzheimer's disease” (priority 2011, dated 2015).
Where “and” joins values, the source holds several entries; their conditions need not be identical. Identical values can stand only once. Entries after “also recorded” stand apart in the source; their conditions may differ.

What was measured:
[1] = target: T1, Acetylcholinesterase (AChE) (Mus musculus, UniProt P21836); experiment: Acetylcholinesterase (AChE) assay in brain (in vitro), Ellman method; assay type: biochemical, Swiss albino mice
T1 construct: A 10% (w/v) homogenate of brain was prepared; from tissue; host or cells: whole brain of adult Swiss albino mice; supernatant (100,000 g) of the 1% Triton X-100 treated homogenate
T1 sequence (P21836 32-614): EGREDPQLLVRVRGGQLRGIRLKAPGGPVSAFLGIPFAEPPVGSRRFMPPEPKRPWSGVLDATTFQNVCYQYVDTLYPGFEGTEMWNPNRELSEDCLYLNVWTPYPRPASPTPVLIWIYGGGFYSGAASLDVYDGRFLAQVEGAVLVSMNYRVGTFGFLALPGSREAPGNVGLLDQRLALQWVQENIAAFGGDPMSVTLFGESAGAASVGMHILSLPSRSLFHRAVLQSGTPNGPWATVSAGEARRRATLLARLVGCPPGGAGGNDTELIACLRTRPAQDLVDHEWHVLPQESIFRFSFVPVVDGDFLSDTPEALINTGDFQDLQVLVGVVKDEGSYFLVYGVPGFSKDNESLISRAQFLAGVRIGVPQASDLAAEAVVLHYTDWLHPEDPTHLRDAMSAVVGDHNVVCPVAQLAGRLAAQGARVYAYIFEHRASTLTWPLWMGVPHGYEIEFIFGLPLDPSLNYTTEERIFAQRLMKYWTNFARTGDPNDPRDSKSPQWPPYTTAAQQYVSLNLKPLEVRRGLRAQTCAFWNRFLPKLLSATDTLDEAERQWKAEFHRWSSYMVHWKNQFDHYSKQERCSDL
Method: Acetylcholinesterase (AChE) Assay in Brain (In Vitro)
The mice were perfused under mild ether anesthesia through heart with ice cooled normal saline (0.9% NaCl) to remove blood-born cholinesterase from the brain. After perfusion the whole brain was taken out. A 10% (w/v) homogenate of brain was prepared first by homogenizing in an Ultra-Turrax T25 homogenizer at a speed of 9500 rpm thrice giving intervals for few seconds in between the runs, with sodium phosphate buffer (0.03 M, pH-7)).
The brain homogenate in volume of 500 μl was mixed with 1% Triton X-100 (1% w/v in 0.03M sodium phosphate buffer, pH-7) and centrifuged at 100,000 g at 4° C. in a Beckman Ultracentrifuge (LE 80, USA), using a fixed angle rotor (80 ti) for 60 min. Supernatant was collected and stored at 4° C. for acetylcholinesterase estimation.
The assay for each sample was run in triplicate and each experiment was performed twice.
The specific activity of AChE is expressed in μM/min/mg of protein.
The test substance (dissolved in ethanol) was incubated with enzyme source in different concentrations ([…]) for 30 min at 37° C. prior to obtain kinetic profile of AChE activity. […] The AChE inhibitory activity was calculated on the basis of % decrease in AChE activity from control values i.e. AChE activity without incubation with any standard or test drug.
The results are expressed as mean±S.E.M. Statistical analysis of passive avoidance values were performed by t-test. The IC50 value was calculated by non linear regression method using GraphPad Prism software.

[2] = tested on: scopolamine induced amnesia in mice; experiment: Passive avoidance test, scopolamine induced amnesia (in vivo); design: species or system Swiss albino male mice; conditions: oral 3.75, 7.5 and 15 mg/kg 1 hr prior to 1st trial, scopolamine 3 mg/kg IP, FIG. 3
Method: Passive avoidance test is widely used as experimental model to assess learning and memory functions in rodents. Scopolamine induced impairment in passive avoidance (in vivo) and inhibition of acetylcholinesterase (in vitro) in rodents are commonly employed screening tests to predict potential of a compound as acetylcholinesterase inhibitor and anti-amnesic drug (Das et al., 2002).
[…]. Mice were kept in standard housing condition with 12 h light and dark cycle. The food and water were available ad libitum.
The passive avoidance test was carried out as described by Tota et al., 2009. The mice were subjected to the passive avoidance test by placing in a compartment with light at intensity of 8 [Scale from 0 to 10 (brightest)] in a computerized shuttle box with a software programme PACS 30 (Columbus Instruments, Ohio, USA).
The light compartment was isolated from the dark compartment by an automated guillotine door. After an acclimatization period of 30 s, the guillotine door was opened and closed automatically after entry of the mouse into the dark compartment. The subject received a low-intensity foot shock (0.5 mA; 10 s) in the dark compartment. Infrared sensors monitored the transfer of the animal from one compartment to another which was recorded as transfer latency time (TLT) in seconds. […]

Swiss albino male mice = experiment: Gross behavioral study; conditions: 125 mg/kg oral dose, 125 mg/kg
[3] = read-out: % Inhibition of AChE enzyme

In the case of `CN(C)C(=O)Oc1ccc2c(c1)N(Cc1ccccc1)CCC2` [Compound 8k, 1-benzyl-1,2,3,4-tetrahydroquinolin-7-yl dimethylcarbamate], the IC50 [1] is reported as 0.099 ± 0.003 µM, the “AChE inhibitory activity compared to Tacrine” value ([1]; comparison with Tacrine) is reported as “almost equal or even slightly better” and the “AChE inhibitory activity, fold better compared to the drug rivastigmine” value ([1]; fold better than rivastigmine) is reported as 12 fold and 10 fold. For the same compound, the inhibition at 10 µM [1, 3] was 95.5%, the inhibition at 100 µM [1, 3] was 98% and the “improvement in learning (transfer latency time, passive avoidance)” value [2] was “shown potential towards the improvement in learning of mice and almost comparable to the drug Rivastigmine and Tacrine”. The tolerability (Swiss albino male mice) was “Well tolerated” and the “cholinergic symptoms / side effects” value (Swiss albino male mice; upto 24 hrs of drug administration) was “no cholinergic symptoms and mortality was observed; also recorded: free from any observable side peripheral side effect; also recorded: No cholinergic symp-”.
